Source: patent publication US8461305B2, “L-fucose α1→6 specific lectin” (J-Oil Mills, Inc., priority 2008, dated 2013)

Columns and labels:
[1] = frontal affinity chromatography (FAC), association constant to PA sugar chains without L-fucose; type: binding
Method: (§1) The following section will describe a method of calculating an association constant by frontal affinity chromatography (FAC). This method is based on the following principle. […] Then, the elution front end (front) is observed immediately. When there is an affinity with lectin, the elution of the sugar chain is delayed.
(§2) The preparation of a lectin column used in the apparatus is performed in the method as described below. 1. Purified lectin is dissolved in 0.1 to 0.2M of NaHCO3 buffer solution (pH 8.3 to 8.5). 2. The lectin is immobilized, via a lectin primary amino group, a carrier such as NHS activated sepharose. 3. Then, the lectin is blocked by Tris buffer solution including primary amine or ethanolamine for example. 4. Lectin-sepharose is suspended in 10 mM Tris buffer, including 0.8% of NaCl (pH 7.4, TBS). Then, lectin immobilized resin is filled in a miniature column (φ2 mm×10 mm, 31.4 μl). 5. The miniature column in which the lectin immobilized resin is filled is protected by a holder and the lectin column is connected to an FAC automatic analysis apparatus (FAC-1, SHIMADZU CORPORATION).
(§3) Then, the elution of the PA sugar chain from the column is detected by a fluorescence detector (excitation wavelength/fluorescence wavelength: 310 nm/380 nm).
(§4) Based on the detection data, by using the elution front end (Vo) of the sugar chain (PA rhamnose) not interacting with lectin as a reference, the delay (V−Vo) of the elution front end (V) of a sugar chain interacting with lectin is calculated as an interaction strength. Then, based on the following FAC criteria expressions, the association constant (Ka) between the sugar chain and lectin is calculated based on V−Vo and Bt. If the interaction strength (V−Vo value) and the association constant are higher, a higher affinity is caused between lectin and an L-fucose α1→6 sugar chain.
(§5) [In the formula, A means substance used for the elution, Ao means the initial concentration of the substance A, B means a immobilized ligand, V means the elution volume, Vo means the elution front end volume of the substance not interacting with the immobilized ligand B at all, Bt means an effective ligand amount, Kd means a dissociation constant (an inverse of the association constant)].
(§6) Pyridylaminated (PA) sugar chains shown in FIG. 1 and FIG. 2 were used to frontal affinity chromatography (FAC) analysis. PA sugars were purchased from TAKARA BIO INC., SEIKAGAKU BIOBUSINESS CORPORATION, and Masuda Chemical Industries co., LTD. PA sugar were also obtained by pyridylaminating, by GlycoTAG®(TAKARA BIO INC.), an unlabeled sugar chain or a sugar chain obtained by subjecting a sugar chain to enzyme digestion for example.
(§7) Lectin was dissolved in 0.2 M NaHCO3 buffer solution (pH 8.3) including 0.5 M NaCl and coupled to the NHS-activated sepharose (GE Healthcare Bioscience) by following the manufacturer's instructions. Then, lectin immobilized sepharose was suspended in 10 mM Tris buffer (pH 7.4, TBS) including […] and the resultant matter was filled in a miniature column (φ2 mm×10 mm, 31.4 μl).
(§8) Frontal affinity chromatography was performed using FAC automatic analysis apparatus (FAC-1, SHIMADZU CORPORATION). In particular, the above-prepared lectin column was inserted to a stainless steel holder and the holder was connected to FAC-1 apparatus. The flow rate and the column temperature were maintained at 0.125 ml/min and 25 degrees C., respectively. After the miniature column was equilibrated by the TBS, an excessive volume (0.5 ml to 4 ml) of a PA sugar chain (3.75 nM or 7.5 nM) was continuously inputted to the column using an automatic sampling apparatus.
(§9) The fluorescent strength of the eluate of the PA sugar (excitation wavelength of 310 nm and fluorescence wavelength of 380 nm) was monitored to measure the interaction strength [a difference of the front end eluate to the standard oligosaccharide (PA rhamnose): V−V0]. […]

[2] = frontal affinity chromatography (FAC), association constant to PA sugar chains having other L-fucose; type: binding; details: for association constant Ka: 25 degrees C.
Method: as §1, §2, §3, §4, §5, §6, §7, §8, §9

binding to sugar chain not having L-fucose ([1]; FAC): not detected at all
binding to non-L-fucose α1→6 sugar chain ([2]; FAC): not detected at all
Substance: Naematoloma sublateritium lectin [NSL]
association constant Ka ([1]; Sugar chain No. 001, sugar chain not having L-fucose): <1000 M⁻¹
association constant Ka ([1]; Sugar chain No. 002, sugar chain not having L-fucose): <1000 M⁻¹
association constant Ka ([1]; Sugar chain No. 003, sugar chain not having L-fucose): <1000 M⁻¹
association constant Ka ([1]; Sugar chain No. 004, sugar chain not having L-fucose): <1000 M⁻¹
association constant Ka ([1]; Sugar chain No. 005, sugar chain not having L-fucose): <1000 M⁻¹
association constant Ka ([1]; Sugar chain No. 006, sugar chain not having L-fucose): <1000 M⁻¹
association constant Ka ([1]; Sugar chain No. 007, sugar chain not having L-fucose): <1000 M⁻¹
association constant Ka ([1]; Sugar chain No. 008, sugar chain not having L-fucose): <1000 M⁻¹
association constant Ka ([1]; Sugar chain No. 009, sugar chain not having L-fucose): <1000 M⁻¹
association constant Ka ([1]; Sugar chain No. 010, sugar chain not having L-fucose): <1000 M⁻¹
association constant Ka ([1]; Sugar chain No. 011, sugar chain not having L-fucose): <1000 M⁻¹
association constant Ka ([1]; Sugar chain No. 012, sugar chain not having L-fucose): <1000 M⁻¹
association constant Ka ([1]; Sugar chain No. 013, sugar chain not having L-fucose): <1000 M⁻¹
association constant Ka ([1]; Sugar chain No. 014, sugar chain not having L-fucose): <1000 M⁻¹
association constant Ka ([1]; Sugar chain No. 101, sugar chain not having L-fucose): <1000 M⁻¹
association constant Ka ([1]; Sugar chain No. 103, sugar chain not having L-fucose): <1000 M⁻¹
association constant Ka ([1]; Sugar chain No. 104, sugar chain not having L-fucose): <1000 M⁻¹
association constant Ka ([1]; Sugar chain No. 105, sugar chain not having L-fucose): <1000 M⁻¹
association constant Ka ([1]; Sugar chain No. 107, sugar chain not having L-fucose): <1000 M⁻¹
association constant Ka ([1]; Sugar chain No. 108, sugar chain not having L-fucose): <1000 M⁻¹
association constant Ka ([1]; Sugar chain No. 301, sugar chain not having L-fucose): <1000 M⁻¹
association constant Ka ([1]; Sugar chain No. 304, sugar chain not having L-fucose): <1000 M⁻¹
association constant Ka ([1]; Sugar chain No. 305, sugar chain not having L-fucose): <1000 M⁻¹
association constant Ka ([1]; Sugar chain No. 307, sugar chain not having L-fucose): <1000 M⁻¹
association constant Ka ([1]; Sugar chain No. 308, sugar chain not having L-fucose): <1000 M⁻¹
association constant Ka ([1]; Sugar chain No. 313, sugar chain not having L-fucose): <1000 M⁻¹
association constant Ka ([1]; Sugar chain No. 314, sugar chain not having L-fucose): <1000 M⁻¹
association constant Ka ([1]; Sugar chain No. 323, sugar chain not having L-fucose): <1000 M⁻¹
association constant Ka ([1]; Sugar chain No. 501, sugar chain not having L-fucose): <1000 M⁻¹
association constant Ka ([1]; Sugar chain No. 502, sugar chain not having L-fucose): <1000 M⁻¹
association constant Ka ([1]; Sugar chain No. 503, sugar chain not having L-fucose): <1000 M⁻¹
association constant Ka ([1]; Sugar chain No. 504, sugar chain not having L-fucose): <1000 M⁻¹
association constant Ka ([1]; Sugar chain No. 701, sugar chain not having L-fucose): <1000 M⁻¹
association constant Ka ([1]; Sugar chain No. 702, sugar chain not having L-fucose): <1000 M⁻¹
association constant Ka ([1]; Sugar chain No. 703, sugar chain not having L-fucose): <1000 M⁻¹
association constant Ka ([1]; Sugar chain No. 704, sugar chain not having L-fucose): <1000 M⁻¹
association constant Ka ([1]; Sugar chain No. 705, sugar chain not having L-fucose): <1000 M⁻¹
association constant Ka ([1]; Sugar chain No. 706, sugar chain not having L-fucose): <1000 M⁻¹
association constant Ka ([1]; Sugar chain No. 707, sugar chain not having L-fucose): <1000 M⁻¹
association constant Ka ([1]; Sugar chain No. 708, sugar chain not having L-fucose): <1000 M⁻¹
association constant Ka ([1]; Sugar chain No. 709, sugar chain not having L-fucose): <1000 M⁻¹
association constant Ka ([1]; Sugar chain No. 710, sugar chain not having L-fucose): <1000 M⁻¹
association constant Ka ([1]; Sugar chain No. 711, sugar chain not having L-fucose): <1000 M⁻¹
association constant Ka ([1]; Sugar chain No. 712, sugar chain not having L-fucose): <1000 M⁻¹
association constant Ka ([1]; Sugar chain No. 713, sugar chain not having L-fucose): <1000 M⁻¹
association constant Ka ([1]; Sugar chain No. 715, sugar chain not having L-fucose): <1000 M⁻¹
association constant Ka ([1]; Sugar chain No. 716, sugar chain not having L-fucose): <1000 M⁻¹
association constant Ka ([1]; Sugar chain No. 717, sugar chain not having L-fucose): <1000 M⁻¹
association constant Ka ([1]; Sugar chain No. 724, sugar chain not having L-fucose): <1000 M⁻¹
association constant Ka ([1]; Sugar chain No. 725, sugar chain not having L-fucose): <1000 M⁻¹
association constant Ka ([1]; Sugar chain No. 728, sugar chain not having L-fucose): <1000 M⁻¹
association constant Ka ([1]; Sugar chain No. 732, sugar chain not having L-fucose): <1000 M⁻¹
association constant Ka ([1]; Sugar chain No. 733, sugar chain not having L-fucose): <1000 M⁻¹
association constant Ka ([1]; Sugar chain No. 734, sugar chain not having L-fucose): <1000 M⁻¹
association constant Ka ([1]; Sugar chain No. 735, sugar chain not having L-fucose): <1000 M⁻¹
association constant Ka ([1]; Sugar chain No. 736, sugar chain not having L-fucose): <1000 M⁻¹
association constant Ka ([1]; Sugar chain No. 737, sugar chain not having L-fucose): <1000 M⁻¹
association constant Ka ([1]; Sugar chain No. 738, sugar chain not having L-fucose): <1000 M⁻¹
association constant Ka ([1]; Sugar chain No. 901, sugar chain not having L-fucose): <1000 M⁻¹
association constant Ka ([1]; Sugar chain No. 902, sugar chain not having L-fucose): <1000 M⁻¹
association constant Ka ([1]; Sugar chain No. 903, sugar chain not having L-fucose): <1000 M⁻¹
association constant Ka ([1]; Sugar chain No. 905, sugar chain not having L-fucose): <1000 M⁻¹
association constant Ka ([1]; Sugar chain No. 907, sugar chain not having L-fucose): <1000 M⁻¹
association constant Ka ([2]; Sugar chain No. 419): <1000 M⁻¹
association constant Ka ([2]; Sugar chain No. 420): <1000 M⁻¹
association constant Ka ([2]; Sugar chain No. 718): <1000 M⁻¹
association constant Ka ([2]; Sugar chain No. 719): <1000 M⁻¹
association constant Ka ([2]; Sugar chain No. 720): <1000 M⁻¹
association constant Ka ([2]; Sugar chain No. 721): <1000 M⁻¹
association constant Ka ([2]; Sugar chain No. 722): <1000 M⁻¹
association constant Ka ([2]; Sugar chain No. 723): <1000 M⁻¹
association constant Ka ([2]; Sugar chain No. 726): <1000 M⁻¹
association constant Ka ([2]; Sugar chain No. 727): <1000 M⁻¹
association constant Ka ([2]; Sugar chain No. 728 (as listed in Table 5/12)): <1000 M⁻¹
association constant Ka ([2]; Sugar chain No. 729): <1000 M⁻¹
association constant Ka ([2]; Sugar chain No. 730): <1000 M⁻¹
association constant Ka ([2]; Sugar chain No. 731): <1000 M⁻¹
association constant Ka ([2]; Sugar chain No. 739): <1000 M⁻¹
association constant Ka ([2]; Sugar chain No. 909): <1000 M⁻¹
association constant Ka ([2]; Sugar chain No. 910): <1000 M⁻¹
association constant Ka ([2]; Sugar chain No. 931): <1000 M⁻¹
association constant Ka ([2]; Sugar chain No. 932): <1000 M⁻¹
association constant Ka ([2]; Sugar chain No. 933): <1000 M⁻¹
